From article PMC9921851, “Synthesis and Preclinical Evaluation of Three Novel ^68Ga-Labeled Bispecific PSMA/FAP-Targeting Tracers for Prostate Cancer Imaging” (Molecules, 2023)

How the values were obtained:
[1] = tested on: PSMA-expressing LNCaP tumor xenografts; test: Ex vivo biodistribution in LNCaP tumor-bearing mice; conditions: LNCaP tumor-bearing mice, 1 h post injection, mean ± SD, n = 4
Procedure: Biodistribution studies were conducted at 1 h post injection with ^68Ga-labeled AV01017, AV01030, AV01038, HTK03041, and FAPI-04 in LNCaP tumor-bearing mice (Figure 5 and Table S4, Supplementary Materials). The results were consistent with the observation from their PET images. Tumor uptake values for [^68Ga]Ga-AV01017, [^68Ga]Ga-AV01030, [^68Ga]Ga-AV01038, [^68Ga]Ga-HTK03041, and [^68Ga]Ga-FAPI-04 were 4.38 ± 0.55, 5.17 ± 0.51, 4.25 ± 0.86, 23.1 ± 6.11, and 3.15 ± 1.43 %ID/g, respectively. […] Although not statistically significant, the bispecific tracers with a longer linker tend to have a higher blood uptake value (9.24 ± 1.55 %ID/g for [^68Ga]Ga-AV01017; 7.07 ± 0.31%ID/g for [^68Ga]Ga-AV01038; 5.75 ± 0.59 %ID/g for [^68Ga]Ga-AV01030) and a lower tumor-to-blood ratio (0.48 ± 0.11 for [^68Ga]Ga-AV01017; 0.60 ± 0.13 for [^68Ga]Ga-AV01038; 0.89 ± 0.03 for [^68Ga]Ga-AV01030).
(§1) Imaging and biodistribution studies were performed using male NOD.Cg-Rag1tm1Mom Il2rgtm1Wjl/SzJ (NRG) mice following previously published procedures. The experiments were conducted according to the guidelines established by the Canadian Council on Animal Care and approved by Animal Ethics Committee of the University of British Columbia. The mice were briefly sedated by inhalation of 2.5% isoflurane in oxygen, and 100 µL LNCaP (2 × 10^5 cells) or HEK293T:hFAP (8.5 × 10^6 cells) cells were inoculated subcutaneously behind the left shoulder. When the tumor grew to 5–8 mm in diameter over 3–4 weeks and 4–5 weeks for HEK293T:hFAP and LNCaP tumors, respectively, the mice were used for PET/CT imaging and biodistribution studies.
(§2) For biodistribution studies, the mice were injected with the radiotracer (~2–4 MBq) as described above. At 1 h post injection, the mice were euthanized by CO2 inhalation. Blood was withdrawn by cardiac puncture, and organs/tissues of interest were collected, weighed, and counted using a Perkin Elmer (Waltham, MA, USA) Wizard2 2480 automatic gamma counter.

[2] = tested on: FAP-expressing HEK293T:hFAP tumor xenografts; test: Ex vivo biodistribution in HEK293T:hFAP tumor-bearing mice; conditions: 1 h post injection, mean ± SD, n = 4
Procedure: Biodistribution studies were also conducted at 1 h post injection with [^68Ga]Ga-AV01017, [^68Ga]Ga-AV01030, [^68Ga]Ga-AV01038, [^68Ga]Ga-HTK03041, and [^68Ga]Ga-FAPI-04 in HEK293T:hFAP tumor-bearing mice (Figure 6 and Table S5, Supplementary Materials). Tumor uptake values for [^68Ga]Ga-AV01017, [^68Ga]Ga-AV01030, [^68Ga]Ga-AV01038, [^68Ga]Ga-HTK03041, and [^68Ga]Ga-FAPI-04 were 2.99 ± 0.37, 3.69 ± 0.81, 3.64 ± 0.83, 0.62 ± 0.19, and 12.5 ± 2.00 %ID/g, respectively. There was a very low tumor uptake in mice injected with [^68Ga]Ga-HTK03041, showing very minimal FAP expression in this tumor model. The uptake levels of these tracers on the major organs and tissues are consistent with the trends observed in the LNCaP tumor-baring mice (Figure 5 and Supplemental Table S4).
as §1, §2

`N#C[C@@H]1CC(F)(F)CN1C(=O)CNC(=O)c1ccnc2ccc(OCCCc3cn(CC(=O)N[C@@H](CCCCNC(=O)CN4CCN(CC(=O)[O-])CCN(CC(=O)[O-])CCN(CC(=O)[O-])CC4)C(=O)NCC(=O)NC[C@H]4CC[C@H](C(=O)N[C@@H](Cc5c6ccccc6cc6ccccc56)C(=O)NCCCC[C@H](NC(=O)N[C@@H](CCC(=O)O)C(=O)O)C(=O)O)CC4)nn3)cc12.[68Ga+3]` [[^68Ga]Ga-AV01017] was tested, and the Adrenal glands uptake [1] was 6.24 ± 2.31 %ID/g, the Blood uptake [1] was 9.24 ± 1.55 %ID/g and the Bone uptake [1] was 4.05 ± 0.86 %ID/g. It also gave a Brain uptake [1] of 0.18 ± 0.01 %ID/g, a Fat uptake [1] of 1.01 ± 0.48 %ID/g and a Heart uptake [1] of 4.04 ± 0.28 %ID/g. For the same compound, the Kidneys uptake [1] was 30.9 ± 6.89 %ID/g, the LNCaP tumor uptake [1] was 4.38 ± 0.55 %ID/g and the Lacrimal glands uptake [1] was 0.13 ± 0.27 %ID/g. For the same compound, the “Large Intestine uptake” value [1] was 1.76 ± 0.21 %ID/g, the Liver uptake [1] was 2.24 ± 0.34 %ID/g and the Lungs uptake [1] was 3.76 ± 0.66 %ID/g. The Muscle uptake [1] was 1.91 ± 0.43 %ID/g, the Pancreas uptake [1] was 5.38 ± 1.29 %ID/g and the Salivary glands uptake [1] was 5.98 ± 4.00 %ID/g. The Seminal vesicle uptake [1] was 1.12 ± 0.21 %ID/g, the “Small Intestine uptake” value [1] was 2.47 ± 0.48 %ID/g and the Spleen uptake [1] was 3.73 ± 1.19 %ID/g. The Stomach uptake [1] was 0.64 ± 0.11 %ID/g, the Testes uptake [1] was 0.69 ± 0.06 %ID/g and the Thyroid uptake [1] was 12.7 ± 2.72 %ID/g. The Tumor/blood uptake ratio [1] was 0.48 ± 0.11, the Tumor/bone uptake ratio [1] was 1.10 ± 0.15 and the Tumor/kidney uptake ratio [1] was 0.14 ± 0.03. It also gave a Tumor/muscle uptake ratio [1] of 2.35 ± 0.35, an Adrenal glands uptake [2] of 4.06 ± 0.27 %ID/g and a Blood uptake [2] of 11.9 ± 3.37 %ID/g. The Bone uptake [2] was 5.26 ± 0.32 %ID/g, the Brain uptake [2] was 0.21 ± 0.07 %ID/g and the Fat uptake [2] was 0.61 ± 0.13 %ID/g. For the same compound, the “HEK293T:hFAP tumor uptake” value [2] was 2.99 ± 0.37 %ID/g, the Heart uptake [2] was 4.63 ± 0.42 %ID/g and the Kidneys uptake [2] was 19.3 ± 2.25 %ID/g. The Lacrimal gland uptake [2] was 1.34 ± 0.50 %ID/g, the “Large Intestine uptake” value [2] was 1.44 ± 0.20 %ID/g and the Liver uptake [2] was 3.40 ± 0.64 %ID/g. For the same compound, the Lungs uptake [2] was 5.50 ± 1.26 %ID/g, the Muscle uptake [2] was 1.63 ± 0.06 %ID/g and the Pancreas uptake [2] was 3.80 ± 0.25 %ID/g. The Salivary glands uptake [2] was 6.43 ± 1.03 %ID/g, the Seminal vesicle uptake [2] was 1.15 ± 0.33 %ID/g and the “Small Intestine uptake” value [2] was 2.14 ± 0.65 %ID/g. It also gave a Spleen uptake [2] of 3.63 ± 3.60 %ID/g, a Stomach uptake [2] of 0.63 ± 0.08 %ID/g and a Testes uptake [2] of 1.15 ± 0.86 %ID/g. The Thyroid uptake [2] was 10.7 ± 2.15 %ID/g, the Tumor/blood uptake ratio [2] was 0.18 ± 0.08 and the Tumor/bone uptake ratio [2] was 0.44 ± 0.12. The Tumor/kidney uptake ratio [2] was 0.11 ± 0.03 and the Tumor/muscle uptake ratio [2] was 1.25 ± 0.17.

For `N#C[C@@H]1CC(F)(F)CN1C(=O)CNC(=O)c1ccnc2ccc(-c3cn(CC(=O)N[C@@H](CCCCNC(=O)CN4CCN(CC(=O)[O-])CCN(CC(=O)[O-])CCN(CC(=O)[O-])CC4)C(=O)NCC(=O)NC[C@H]4CC[C@H](C(=O)N[C@@H](Cc5c6ccccc6cc6ccccc56)C(=O)NCCCC[C@H](NC(=O)N[C@@H](CCC(=O)O)C(=O)O)C(=O)O)CC4)nn3)cc12.[68Ga+3]` [[^68Ga]Ga-AV01030], the Adrenal glands uptake [1] was 3.13 ± 1.25 %ID/g, the Blood uptake [1] was 5.75 ± 0.59 %ID/g and the Bone uptake [1] was 4.48 ± 0.59 %ID/g. It also gave a Brain uptake [1] of 0.12 ± 0.01 %ID/g, a Fat uptake [1] of 0.68 ± 0.12 %ID/g and a Heart uptake [1] of 2.41 ± 0.13 %ID/g. The Kidneys uptake [1] was 44.0 ± 2.42 %ID/g, the LNCaP tumor uptake [1] was 5.17 ± 0.51 %ID/g and the Lacrimal glands uptake [1] was 0.44 ± 0.68 %ID/g. For the same compound, the “Large Intestine uptake” value [1] was 1.32 ± 0.29 %ID/g, the Liver uptake [1] was 1.43 ± 0.26 %ID/g and the Lungs uptake [1] was 2.93 ± 0.28 %ID/g. It also gave a Muscle uptake [1] of 1.59 ± 0.14 %ID/g, a Pancreas uptake [1] of 3.63 ± 0.29 %ID/g and a Salivary glands uptake [1] of 4.76 ± 1.79 %ID/g. For the same compound, the Seminal vesicle uptake [1] was 1.04 ± 0.13 %ID/g, the “Small Intestine uptake” value [1] was 1.58 ± 0.13 %ID/g and the Spleen uptake [1] was 6.50 ± 1.37 %ID/g. For the same compound, the Stomach uptake [1] was 0.44 ± 0.07 %ID/g, the Testes uptake [1] was 0.70 ± 0.08 %ID/g and the Thyroid uptake [1] was 8.33 ± 0.41 %ID/g. For the same compound, the Tumor/blood uptake ratio [1] was 0.89 ± 0.03, the Tumor/bone uptake ratio [1] was 1.17 ± 0.26 and the Tumor/kidney uptake ratio [1] was 0.11 ± 0.00. It also gave a Tumor/muscle uptake ratio [1] of 3.25 ± 0.39, an Adrenal glands uptake [2] of 3.15 ± 0.39 %ID/g and a Blood uptake [2] of 5.68 ± 0.72 %ID/g. For the same compound, the Bone uptake [2] was 3.59 ± 0.44 %ID/g, the Brain uptake [2] was 0.12 ± 0.02 %ID/g and the Fat uptake [2] was 0.63 ± 0.20 %ID/g. For the same compound, the “HEK293T:hFAP tumor uptake” value [2] was 3.69 ± 0.81 %ID/g, the Heart uptake [2] was 2.20 ± 0.46 %ID/g and the Kidneys uptake [2] was 30.0 ± 8.71 %ID/g. The Lacrimal gland uptake [2] was 0.20 ± 0.24 %ID/g, the “Large Intestine uptake” value [2] was 1.15 ± 0.10 %ID/g and the Liver uptake [2] was 1.51 ± 0.33 %ID/g. The Lungs uptake [2] was 3.02 ± 0.25 %ID/g, the Muscle uptake [2] was 1.78 ± 0.58 %ID/g and the Pancreas uptake [2] was 3.26 ± 0.82 %ID/g. For the same compound, the Salivary glands uptake [2] was 7.01 ± 2.25 %ID/g, the “Small Intestine uptake” value [2] was 1.23 ± 0.16 %ID/g and the Spleen uptake [2] was 7.41 ± 1.75 %ID/g. The Stomach uptake [2] was 0.42 ± 0.04 %ID/g, the Testes uptake [2] was 0.66 ± 0.08 %ID/g and the Thyroid uptake [2] was 7.70 ± 1.08 %ID/g. It also gave a Tumor/bone uptake ratio [2] of 1.04 ± 0.31 and a Tumor/muscle uptake ratio [2] of 2.12 ± 0.30.
